Experimental data taken from patent US20230021483A1, “[…] […] METHOD AND CLASSIFICATION OF PHARMACEUTICAL COMPONENTS BY USING TRANSCRIPTOMES” (National Institutes of Biomedical Innovation, Health and …, priority 2016, published 2023).
Values joined by “and” are separate entries in the source; they are usually repeats but may differ in a detail not shown here. Equal entries are not always repeated.

Tests used:
Type in all cases: in vivo, C57BL/6 mice
liver (LV) = test: Whole organ transcriptome (GeneChip microarray) of liver 6 h after adjuvant administration: sDEGs, hierarchical clustering; conditions: liver; for adjuvant group (cluster) in LV: key: G1 (interferon signaling); G2 (metabolism of lipids and lipoproteins); G3 (response to stress); G4 (response to wounding); G5 (phosphate-containing compound metabolic process); G6 (phagosome)
[1] = system: inguinal lymph nodes (LN); test: Whole organ transcriptome (GeneChip microarray) of draining inguinal lymph nodes 6 h after adjuvant administration: sDEGs, gene modules, hierarchical clustering; conditions: lymph node; for adjuvant group (cluster) in LN: key: G1 (interferon signaling); G2 (metabolism of lipids and lipoproteins); G3 (response to stress); G4 (response to wounding); G5 (phosphate-containing compound metabolic process); G6 (phagosome)
spleen (SP) = test: Whole organ transcriptome (GeneChip microarray) of spleen 6 h after adjuvant administration: sDEGs, hierarchical clustering; for adjuvant group (cluster) in SP: key: G1 (interferon signaling); G2 (metabolism of lipids and lipoproteins); G3 (response to stress); G4 (response to wounding); G5 (phosphate-containing compound metabolic process); G6 (phagosome)
[2] = system: preferentially upregulated genes in LV, SP, LN; test: Z-score-based differential gene expression analysis (adjuvant group- or adjuvant-associated genes, 40 module mapping, TargetMine annotation); conditions: liver (LV); gene group G1, module 20; individual mice x1-x3; route ID/IP/IN
Summary of the method: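 Per-sample fold-change values converted to gene-wise z-scores within each organ's data set, then triplicate z-scores summed per adjuvant. Genes with summed score >3 taken as preferentially expressed; gene groups defined by combined per-adjuvant z-score thresholds (z>1 to z>3) specific to each organ.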

[3] = i.d. administration, fold change <0.667, p<0.01, customized PA call=1, 6 h after adjuvant
[4] = i.d. administration, fold change >1.5, p<0.01, customized PA call=1, 6 h after adjuvant

heptanoyl-γ-D-glutamyl-(L)-meso-diaminopimelyl-(D)-alanine [FK565]
adjuvant group (cluster) in LV (liver (LV); hierarchical clustering): G3 | Number of gene probes with statistically significant changes (sDEGs), LV, Down (liver (LV); [3]): 1972 | Number of gene probes with statistically significant changes (sDEGs), LV, Up (liver (LV); [4]): 2094 | adjuvant group (cluster) in LN ([1]; hierarchical clustering): G3 | Number of gene probes with statistically significant changes (sDEGs), LN, Down [1, 3]: 306 | Number of gene probes with statistically significant changes (sDEGs), LN, Up [1, 4]: 526 | adjuvant group (cluster) in SP (spleen (SP); hierarchical clustering): G3 | Number of gene probes with statistically significant changes (sDEGs), SP, Down (spleen (SP); [3]): 624 | Number of gene probes with statistically significant changes (sDEGs), SP, Up (spleen (SP); [4]): 1672 | Z score of gene expression, Adar (probe 1425405_a_at) [2]: −0.4 (2×) and −0.5 | Z score of gene expression, Adar (probe 1434268_at) [2]: −0.1 | Z score of gene expression, Ddx58 (probe 1436562_at) [2]: −0.2 (2×) and −0.3 | Z score of gene expression, Ddx58 (probe 1456890_at) [2]: −0.5 (2×) and −0.1 | Z score of gene expression, Eif2ak2 (probe 1422005_at) [2]: 0.05 and 0.09 and −0.1 | Z score of gene expression, G3bp2 (probe 1421323_a_at) [2]: −0.3 (2×) and −0.2 | Z score of gene expression, Gm9706///Isg15 (probe 1431591_s_at) [2]: −0.1 (2×) and −0.2 | Z score of gene expression, H2-T10///H2-T22///H2-T9 (probe 1449875_s_at) [2]: 0.21 and 0.04 and 0.29 | Z score of gene expression, Ifih1 (probe 1426276_at) [2]: −0.3 | Z score of gene expression, Ifit1 (probe 1449025_at) [2]: −0.4 | Z score of gene expression, Ifit1 (probe 1450783_at) [2]: −0.4 | Z score of gene expression, Irf7 (probe 1417244_a_at) [2]: −0.3 (2×) and −0.4 | Z score of gene expression, Irgm1 (probe 1418825_at) [2]: 0.07 and 0.13 and 0.08 | Z score of gene expression, Mndal (probe 1426906_at) [2]: −0.4 and −0.5 (2×) | Z score of gene expression, Pml (probe 1448757_at) [2]: −0.5 and −0.6 and −0.8 | Z score of gene expression, Pml (probe 1456103_at) [2]: −0.5 | Z score of gene expression, Rnf213 (probe 1455500_at) [2]: 0.02 and 0.06 and 0.03 | Z score of gene expression, Rsad2 (probe 1436058_at) [2]: −0.4 | Z score of gene expression, Shisa5 (probe 1423986_a_at) [2]: −0.1 and 0.01 and 0.18 | Z score of gene expression, Shisa5 (probe 1437503_a_at) [2]: −0.2 and −0.3 and −0.1 | Z score of gene expression, Stat1 (probe 1450033_a_at) [2]: −0.1 and −0 and 0 | Z score of gene expression, Stat1 (probe 1450034_at) [2]: −0.1 (2×) and −0 | Z score of gene expression, Tdrd7 (probe 1426716_at) [2]: −0.5 (2×) and −0.4 | Z score of gene expression, Tor1aip2 (probe 1418115_s_at) [2]: −0.6 and −0.5 (2×) | Z score of gene expression, Tor1aip2 (probe 1418116_at) [2]: −0.7 (2×) and −0.9 | Z score of gene expression, Tor1aip2 (probe 1435526_at) [2]: −0.8 and −0.9 (2×) | Z score of gene expression, Trim12a (probe 1437432_a_at) [2]: 0.1 and −0.1 and −0.2 | Z score of gene expression, Uba7 (probe 1426970_a_at) [2]: −0.4 and −0.5 and −0.3
